Laboratory results: patent publication US20220080053A1, “USE OF ANTI-CEACAM5 IMMUNOCONJUGATES FOR TREATING LUNG CANCER” (SANOFI, priority 2019, published 2022)

T1: human CEACAM5 (Homo sapiens, UniProt P06731)
T1 construct: soluble recombinant CEACAM5 as capture antigen
T1 sequence (P06731 35-685 limits assumed): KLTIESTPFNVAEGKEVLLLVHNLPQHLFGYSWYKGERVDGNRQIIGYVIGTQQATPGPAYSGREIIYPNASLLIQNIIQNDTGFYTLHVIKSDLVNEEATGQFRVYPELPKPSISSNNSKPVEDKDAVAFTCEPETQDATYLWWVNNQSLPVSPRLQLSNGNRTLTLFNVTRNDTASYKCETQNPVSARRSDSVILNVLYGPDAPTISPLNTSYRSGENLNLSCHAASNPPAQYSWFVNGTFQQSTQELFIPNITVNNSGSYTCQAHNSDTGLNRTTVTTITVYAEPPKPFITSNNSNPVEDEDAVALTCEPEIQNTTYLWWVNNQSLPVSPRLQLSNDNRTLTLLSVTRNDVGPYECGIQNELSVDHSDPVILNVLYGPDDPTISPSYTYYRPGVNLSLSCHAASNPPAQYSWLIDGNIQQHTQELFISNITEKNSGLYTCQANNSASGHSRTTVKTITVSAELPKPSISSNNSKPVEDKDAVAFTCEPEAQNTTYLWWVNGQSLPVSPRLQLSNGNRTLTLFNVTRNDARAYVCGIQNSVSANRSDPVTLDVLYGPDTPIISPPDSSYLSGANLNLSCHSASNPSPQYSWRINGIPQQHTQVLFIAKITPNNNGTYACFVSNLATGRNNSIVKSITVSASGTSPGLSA

B1: Mab2K52R: variant of antibody MAb2 generated by introducing a K52R substitution in the CDR2-L (antibody, V domains shown)
VH: EVQLQESGGVLVKPGGSLKLSCAASGFVFSSYDMSWVRQTPEKRLEWVAYISSGGGITYFPDTVQGRFTVSRDNAKNTLYLQMNSLKSEDTAIYYCAAHYFGSSGPFAYWGQGTLVTVSA
VL: DIQMTQSPASLSASVGETVTITCRASENIFSYLAWYQQKQGKSPQLLVYNTRTLAEGVPSRFSGSGSGTQFSLKINSLQPEDFGSYYCQHHYGTPFTFGSGTKLEIK

How the values were obtained:
[1] = tested on: Macaca fascicularis CEACAM5; details: cited from earlier work
Macaca fascicularis CEACAM5, sequence (as listed by the source): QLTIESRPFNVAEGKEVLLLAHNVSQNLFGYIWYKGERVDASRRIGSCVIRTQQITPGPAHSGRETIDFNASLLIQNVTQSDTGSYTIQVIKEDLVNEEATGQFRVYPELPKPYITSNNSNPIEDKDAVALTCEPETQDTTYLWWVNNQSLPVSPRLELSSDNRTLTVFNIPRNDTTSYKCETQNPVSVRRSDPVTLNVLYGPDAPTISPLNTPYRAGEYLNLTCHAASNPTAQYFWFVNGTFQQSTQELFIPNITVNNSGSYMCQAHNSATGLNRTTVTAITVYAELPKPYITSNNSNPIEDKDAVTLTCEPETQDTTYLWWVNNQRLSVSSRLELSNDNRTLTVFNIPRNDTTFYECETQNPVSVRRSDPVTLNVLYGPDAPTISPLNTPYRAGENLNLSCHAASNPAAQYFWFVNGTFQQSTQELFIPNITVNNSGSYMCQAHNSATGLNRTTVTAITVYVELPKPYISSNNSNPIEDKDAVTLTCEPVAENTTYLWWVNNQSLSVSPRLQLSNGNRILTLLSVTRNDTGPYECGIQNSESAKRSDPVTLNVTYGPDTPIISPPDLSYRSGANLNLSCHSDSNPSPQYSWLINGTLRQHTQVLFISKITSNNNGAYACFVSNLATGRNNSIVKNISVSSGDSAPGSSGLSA

[2] = tested on: other CEACAM family members; details: cited from earlier work
[3] = tested on: Macaca fascicularis CEACAM5; experiment: Affinity for Macaca fascicularis CEACAM5; assay type: binding
From the text: (§1) In an attempt to produce new antibodies against CEACAM5 surface protein with optimal characteristics for therapeutic purposes, mice were immunized with recombinant proteins and with tumour cells. They have screened hundreds of hybridoma using ELISA on several recombinant proteins of the CEACAM family, and flow cytometry with relevant cell lines, in order to select only immunoglobulins (IgGs) with the advantageous profile. Unexpectedly, they were able to select hybridoma clones and produce corresponding mature IgGs that comprise all of the desired features. […] In a cellular context, these antibodies display high affinity for tumor cells (in the nano-molar range). […] It can be experimentally assessed by a variety of known methods, such as measuring association and dissociation rates with surface plasmon resonance or measuring the EC50 (or apparent KD) in an immunochemical assay (ELISA, FACS). In these assays, the EC50 is the concentration of the antibody which induces a response halfway between the baseline and maximum after some specified exposure time on a defined concentration of antigen by ELISA (enzyme-linked immuno-sorbent assay) or cell expressing the antigen by FACS (Fluorescence Activated Cell Sorting). Affinity for human CEACAM5 or for Macaca fascicularis CEACAM5 may be determined as the EC50 value in an ELISA using soluble recombinant CEACAM5 as capture antigen.

human CEACAM5 = target: T1, human CEACAM5; experiment: Affinity for human CEACAM5; assay type: binding
From the text: as §1

Molecule	cross-reaction with CEACAM5 from Macaca fascicularis [1]	binding to related antigens / other CEACAM family members [2]	affinity for Macaca fascicularis CEACAM5 compared with MAb2 [3]	affinity for human CEACAM5 compared with MAb2 (human CEACAM5)
labetuzumab: Immunomedics anti-human CEACAM5 antibody used in clinical trials	not cross-reacting	not to bind		
B1			essentially the same affinity	essentially the same affinity
